What was measured:
Type in all cases: functional
[1] = tested on: NCI-H460; experiment: Cytotoxicity against human NCI-H460 cells assessed as growth inhibition at 10 uM after 48 hrs by SRB assay; details: NCI-H460, 48 h, read-out: GI
[2] = tested on: IGROV-1; experiment: Cytotoxicity against human IGROV1 cells assessed as growth inhibition at 10 uM after 48 hrs by SRB assay; details: IGROV-1, 48 h, read-out: GI
[3] = tested on: SK-OV-3; experiment: Cytotoxicity against human SKOV3 cells assessed as growth inhibition at 10 uM after 48 hrs by SRB assay; details: SK-OV-3, 48 h, read-out: GI
[4] = tested on: HCT-15; experiment: Cytotoxicity against human HCT15 cells assessed as growth inhibition at 10 uM after 48 hrs by SRB assay; details: HCT-15, 48 h, read-out: GI
[5] = tested on: MDA-MB-468; experiment: Cytotoxicity against human MDA-MB-468 cells assessed as growth inhibition at 10 uM after 48 hrs by SRB assay; details: MDA-MB-468, 48 h, read-out: GI
[6] = tested on: OVCAR-5; experiment: Cytotoxicity against human OVCAR5 cells assessed as growth inhibition at 10 uM after 48 hrs by SRB assay; details: OVCAR-5, 48 h, read-out: GI
[7] = tested on: 786-0; experiment: Cytotoxicity against human 786-0 cells assessed as growth inhibition at 10 uM after 48 hrs by SRB assay; details: 786-0, 48 h, read-out: GI
[8] = tested on: CCRF-CEM; experiment: Cytotoxicity against human CCRF-CEM cells assessed as growth inhibition at 10 uM after 48 hrs by SRB assay; details: read-out: GI
[9] = tested on: MOLT-4; experiment: Cytotoxicity against human MOLT4 cells assessed as growth inhibition at 10 uM after 48 hrs by SRB assay; details: MOLT-4, 48 h, read-out: GI
[10] = tested on: COLO 205; experiment: Cytotoxicity against human COLO205 cells assessed as growth inhibition at 10 uM after 48 hrs by SRB assay; details: COLO 205, 48 h, read-out: GI
[11] = tested on: SF-268; experiment: Cytotoxicity against human SF268 cells assessed as growth inhibition at 10 uM after 48 hrs by SRB assay; details: SF-268, 48 h, read-out: GI
[12] = tested on: MDA-MB-435; experiment: Cytotoxicity against human MDA-MB-435 cells assessed as growth inhibition at 10 uM after 48 hrs by SRB assay; details: MDA-MB-435, 48 h, read-out: GI
[13] = Cytotoxicity against human EKVX cells assessed as growth inhibition at 10 uM after 48 hrs by SRB assay; details: read-out: GI
[14] = tested on: U-251; experiment: Cytotoxicity against human U251 cells assessed as growth inhibition at 10 uM after 48 hrs by SRB assay; details: U-251, 48 h, read-out: GI
[15] = tested on: UACC-257; experiment: Cytotoxicity against human UACC257 cells assessed as growth inhibition at 10 uM after 48 hrs by SRB assay; details: UACC-257, 48 h, read-out: GI
[16] = tested on: HOP-62; experiment: Cytotoxicity against human HOP62 cells assessed as growth inhibition at 10 uM after 48 hrs by SRB assay; details: HOP-62, 48 h, read-out: GI
[17] = tested on: HCT-116; experiment: Cytotoxicity against human HCT116 cells assessed as growth inhibition at 10 uM after 48 hrs by SRB assay; details: HCT-116, 48 h, read-out: GI
[18] = tested on: SN12C; experiment: Cytotoxicity against human SN12C cells assessed as growth inhibition at 10 uM after 48 hrs by SRB assay; details: read-out: GI
[19] = tested on: NCI-H226; experiment: Cytotoxicity against human NCI-H226 cells assessed as growth inhibition at 10 uM after 48 hrs by SRB assay; details: NCI-H226, 48 h, read-out: GI
[20] = tested on: SK-MEL-28; experiment: Cytotoxicity against human SK-MEL-28 cells assessed as growth inhibition at 10 uM after 48 hrs by SRB assay; details: SK-MEL-28, 48 h, read-out: GI
[21] = tested on: NCI-H522; experiment: Cytotoxicity against human NCI-H522 cells assessed as growth inhibition at 10 uM after 48 hrs by SRB assay; details: NCI-H522, 48 h, read-out: GI
[22] = tested on: HT-29; experiment: Cytotoxicity against human HT-29 cells assessed as growth inhibition at 10 uM after 48 hrs by SRB assay; details: HT-29, 48 h, read-out: GI
[23] = tested on: ACHN; experiment: Cytotoxicity against human ACHN cells assessed as growth inhibition at 10 uM after 48 hrs by SRB assay; details: read-out: GI
[24] = Cytotoxicity against human NCI-ADR-RES cells assessed as growth inhibition at 10 uM after 48 hrs by SRB assay; details: read-out: GI
[25] = tested on: OVCAR-3; experiment: Cytotoxicity against human OVCAR3 cells assessed as growth inhibition at 10 uM after 48 hrs by SRB assay; details: OVCAR-3, 48 h, read-out: GI
[26] = tested on: T47D; experiment: Cytotoxicity against human T47D cells assessed as growth inhibition at 10 uM after 48 hrs by SRB assay; details: read-out: GI
[27] = tested on: SK-MEL-2; experiment: Cytotoxicity against human SK-MEL-2 cells assessed as growth inhibition at 10 uM after 48 hrs by SRB assay; details: SK-MEL-2, 48 h, read-out: GI
[28] = tested on: SW-620; experiment: Cytotoxicity against human SW620 cells assessed as growth inhibition at 10 uM after 48 hrs by SRB assay; details: SW-620, 48 h, read-out: GI
[29] = tested on: A498; experiment: Cytotoxicity against human A498 cells assessed as growth inhibition at 10 uM after 48 hrs by SRB assay; details: A498, 48 h, read-out: GI
[30] = tested on: SNB-19; experiment: Cytotoxicity against human SNB19 cells assessed as growth inhibition at 10 uM after 48 hrs by SRB assay; details: SNB-19, 48 h, read-out: GI
[31] = tested on: HOP-92; experiment: Cytotoxicity against human HOP92 cells assessed as growth inhibition at 10 uM after 48 hrs by SRB assay; details: HOP-92, 48 h, read-out: GI
[32] = tested on: DU-145; experiment: Cytotoxicity against human DU145 cells assessed as growth inhibition at 10 uM after 48 hrs by SRB assay; details: DU-145, 48 h, read-out: GI
[33] = tested on: UACC-62; experiment: Cytotoxicity against human UACC62 cells assessed as growth inhibition at 10 uM after 48 hrs by SRB assay; details: UACC-62, 48 h, read-out: GI
[34] = tested on: SR; experiment: Cytotoxicity against human SR cells assessed as growth inhibition at 10 uM after 48 hrs by SRB assay; details: read-out: GI
[35] = tested on: OVCAR-8; experiment: Cytotoxicity against human OVCAR8 cells assessed as growth inhibition at 10 uM after 48 hrs by SRB assay; details: OVCAR-8, 48 h, read-out: GI
[36] = tested on: SK-MEL-5; experiment: Cytotoxicity against human SK-MEL-5 cells assessed as growth inhibition at 10 uM after 48 hrs by SRB assay; details: SK-MEL-5, 48 h, read-out: GI
[37] = tested on: M14; experiment: Cytotoxicity against human M14 cells assessed as growth inhibition at 10 uM after 48 hrs by SRB assay; details: M14, 48 h, read-out: GI
[38] = tested on: SNB-75; experiment: Cytotoxicity against human SNB75 cells assessed as growth inhibition at 10 uM after 48 hrs by SRB assay; details: SNB-75, 48 h, read-out: GI

| SMILES | inhibition of growth at 10 µM [1] [%] | inhibition of growth at 10 µM [2] [%] | inhibition of growth at 10 µM [3] [%] | inhibition of growth at 10 µM [4] [%] | inhibition of growth at 10 µM [5] [%] | inhibition of growth at 10 µM [6] [%] | inhibition of growth at 10 µM [7] [%] | inhibition of growth at 10 µM [8] [%] | inhibition of growth at 10 µM [9] [%] | inhibition of growth at 10 µM [10] [%] | inhibition of growth at 10 µM [11] [%] | inhibition of growth at 10 µM [12] [%] | inhibition of growth at 10 µM [13] [%] | inhibition of growth at 10 µM [14] [%] | inhibition of growth at 10 µM [15] [%] | inhibition of growth at 10 µM [16] [%] | inhibition of growth at 10 µM [17] [%] | inhibition of growth at 10 µM [18] [%] | inhibition of growth at 10 µM [19] [%] | inhibition of growth at 10 µM [20] [%] | also measured |
| --- | --- | --- | --- | --- | --- | --- | --- | --- | --- | --- | --- | --- | --- | --- | --- | --- | --- | --- | --- | --- | --- |
| COc1ccc(NC(=O)Nc2ccc(NC3=NS(=O)(=O)c4ccccc43)cc2)cc1 | 1 | -6 | -20 | 3 | -7 | -10 | 19 | 14 | 11 | -36 | -1 | 6 | 2 | 14 | -19 | -12 | 5 | 5 | -3 | -4 | inhibition of growth at 10 µM [21]: 0%; inhibition of growth at 10 µM [22]: 17%; inhibition of growth at 10 µM [23]: -3%; inhibition of growth at 10 µM [24]: -6%; inhibition of growth at 10 µM [25]: -2%; inhibition of growth at 10 µM [26]: 5%; inhibition of growth at 10 µM [27]: -4%; inhibition of growth at 10 µM [28]: -6%; inhibition of growth at 10 µM [29]: 17%; inhibition of growth at 10 µM [30]: -6%; inhibition of growth at 10 µM [31]: -13%; inhibition of growth at 10 µM [32]: 3%; inhibition of growth at 10 µM [33]: -3%; inhibition of growth at 10 µM [34]: 11%; inhibition of growth at 10 µM [35]: -11%; inhibition of growth at 10 µM [36]: 14%; inhibition of growth at 10 µM [37]: -8%; inhibition of growth at 10 µM [38]: 1% |
| Cc1ccc(NC2=NS(=O)(=O)c3ccc(NC(=O)CCC(=O)O)cc32)cc1 | -7 | -12 | -11 | -13 | -6 | 1 | 2 | 2 | -3 | -11 | -10 | 0 | -4 | 0 | -25 | -5 | -6 | 6 | 13 | -2 | inhibition of growth at 10 µM [21]: -8%; inhibition of growth at 10 µM [22]: -3%; inhibition of growth at 10 µM [23]: -5%; inhibition of growth at 10 µM [24]: -3%; inhibition of growth at 10 µM [25]: -16%; inhibition of growth at 10 µM [26]: 5%; inhibition of growth at 10 µM [27]: -6%; inhibition of growth at 10 µM [28]: 1%; inhibition of growth at 10 µM [29]: -14%; inhibition of growth at 10 µM [30]: 1%; inhibition of growth at 10 µM [31]: 9%; inhibition of growth at 10 µM [32]: -11%; inhibition of growth at 10 µM [33]: 6%; inhibition of growth at 10 µM [34]: -5%; inhibition of growth at 10 µM [35]: -10%; inhibition of growth at 10 µM [36]: 5%; inhibition of growth at 10 µM [37]: -2%; inhibition of growth at 10 µM [38]: 21% |
